Data from PubChem BioAssay AID1259407 (Chemical Carcinogenesis Research Information System (CCRIS), 2018).
The source made the active and inactive calls. The rule behind the calls is not given here.

Test system: CCRIS mutagenicity, Ames/micronucleus/aberration tests
Test: CCRIS mutagenicity studies
[1] = Test System: AMES SALMONELLA TYPHIMURIUM, Strain/Indicator: TA98, Metabolic Activation: NONE, Method: PREINCUBATION
[2] = Test System: AMES SALMONELLA TYPHIMURIUM, Strain/Indicator: TA100, Metabolic Activation: NONE, Method: PREINCUBATION

NC=O
mutagenic call (End Point: In vivo micronucleus, Test System: Peripheral blood erythrocytes, Species: Mouse, Strain/Sex: B6C3F1/ Male and Female, Route: Oral): inactive; negative | mutagenic call (Test System: AMES SALMONELLA TYPHIMURIUM, Strain/Indicator: TA98, Metabolic Activation: HAMSTER, LIVER, S-9, AROCLOR 1254 (10%), Method: PREINCUBATION): inactive; negative | mutagenic call [1]: inactive; negative | mutagenic call (Test System: AMES SALMONELLA TYPHIMURIUM, Strain/Indicator: TA98, Metabolic Activation: RAT LIVER S-9, PHENOBARBITAL AND BETA-NAPHTHOFLAVONE, Method: PREINCUBATION): inactive; negative | mutagenic call (Test System: AMES SALMONELLA TYPHIMURIUM, Strain/Indicator: TA98, Metabolic Activation: RAT, LIVER, S-9, AROCLOR 1254 (10%), Method: PREINCUBATION): inactive; negative | mutagenic call (Test System: AMES SALMONELLA TYPHIMURIUM, Strain/Indicator: TA100, Metabolic Activation: HAMSTER, LIVER, S-9, AROCLOR 1254 (10%), Method: PREINCUBATION): inactive; negative | mutagenic call [2]: inactive; negative | mutagenic call (Test System: AMES SALMONELLA TYPHIMURIUM, Strain/Indicator: TA100, Metabolic Activation: RAT LIVER S-9, PHENOBARBITAL AND BETA-NAPHTHOFLAVONE, Method: PREINCUBATION): inactive; negative | mutagenic call (Test System: AMES SALMONELLA TYPHIMURIUM, Strain/Indicator: TA100, Metabolic Activation: RAT, LIVER, S-9, AROCLOR 1254 (10%), Method: PREINCUBATION): inactive; negative | mutagenic call (Test System: AMES SALMONELLA TYPHIMURIUM, Strain/Indicator: TA1535, Metabolic Activation: HAMSTER, LIVER, S-9, AROCLOR 1254 (10%), Method: PREINCUBATION): inactive; negative | mutagenic call (Test System: AMES SALMONELLA TYPHIMURIUM, Strain/Indicator: TA1535, Metabolic Activation: NONE, Method: PREINCUBATION): inactive; negative | mutagenic call (Test System: AMES SALMONELLA TYPHIMURIUM, Strain/Indicator: TA1535, Metabolic Activation: RAT LIVER S-9, PHENOBARBITAL AND BETA-NAPHTHOFLAVONE, Method: PREINCUBATION): inactive; negative | mutagenic call (Test System: AMES SALMONELLA TYPHIMURIUM, Strain/Indicator: TA1535, Metabolic Activation: RAT, LIVER, S-9, AROCLOR 1254 (10%), Method: PREINCUBATION): inactive; negative | mutagenic call (Test System: AMES SALMONELLA TYPHIMURIUM, Strain/Indicator: TA1537, Metabolic Activation: HAMSTER, LIVER, S-9, AROCLOR 1254 (10%), Method: PREINCUBATION): inactive; negative | mutagenic call (Test System: AMES SALMONELLA TYPHIMURIUM, Strain/Indicator: TA1537, Metabolic Activation: NONE, Method: PREINCUBATION): inactive; negative | mutagenic call (Test System: AMES SALMONELLA TYPHIMURIUM, Strain/Indicator: TA1537, Metabolic Activation: RAT LIVER S-9, PHENOBARBITAL AND BETA-NAPHTHOFLAVONE, Method: PREINCUBATION): inactive; negative | mutagenic call (Test System: AMES SALMONELLA TYPHIMURIUM, Strain/Indicator: TA1537, Metabolic Activation: RAT, LIVER, S-9, AROCLOR 1254 (10%), Method: PREINCUBATION): inactive; negative | mutagenic call (Test System: Ames Salmonella typhimurium, Strain/Indicator: TA98, Metabolic Activation: None, Method: Preincubation): inactive; negative | mutagenic call (Test System: Ames Salmonella typhimurium, Strain/Indicator: TA98, Metabolic Activation: Rat, Liver, S-9, Aroclor 1254 (10%), Method: Preincubation): inactive; negative | mutagenic call (Test System: Ames Salmonella typhimurium, Strain/Indicator: TA100, Metabolic Activation: None, Method: Preincubation): inactive; negative | mutagenic call (Test System: Ames Salmonella typhimurium, Strain/Indicator: TA100, Metabolic Activation: Rat, Liver, S-9, Aroclor 1254 (10%), Method: Preincubation): inactive; negative | mutagenic call (Test System: E. coli, Strain/Indicator: WP urvA pKM101, Metabolic Activation: None, Method: Preincubation): inactive; negative | mutagenic call (Test System: E. coli, Strain/Indicator: WP urvA pKM101, Metabolic Activation: Rat, Liver, S-9, Aroclor 1254 (10%), Method: Preincubation): inactive; negative | mutagenic call (Test System: E.COLI, Strain/Indicator: WP2UVRA/PKM101, Metabolic Activation: NONE, Method: PREINCUBATION): inactive; negative | mutagenic call (Test System: E.COLI, Strain/Indicator: WP2UVRA/PKM101, Metabolic Activation: RAT LIVER S-9, PHENOBARBITAL AND BETA-NAPHTHOFLAVONE, Method: PREINCUBATION): inactive; negative

Nc1nc(N)nc(-c2ccc([N+](=O)[O-])o2)n1
mutagenic call (Test System: AMES SALMONELLA TYPHIMURIUM, Strain/Indicator: TA100, Metabolic Activation: RAT, LIVER, S-9, KC500 OR PHENOBARBITAL, Method: LIQUID SUSPENSION): active; positive

O=[N+]([O-])c1ccc2ncccc2c1
mutagenic call [1]: active; positive | mutagenic call (Test System: AMES SALMONELLA TYPHIMURIUM, Strain/Indicator: TA98, Metabolic Activation: RAT, LIVER, S-9, Method: PREINCUBATION): active; positive | mutagenic call [2]: active; positive | mutagenic call (Test System: AMES SALMONELLA TYPHIMURIUM, Strain/Indicator: TA100, Metabolic Activation: RAT, LIVER, S-9, Method: PREINCUBATION): active; positive

CCN(CC)CCCN
mutagenic call [1]: inactive; negative | mutagenic call (Test System: AMES SALMONELLA TYPHIMURIUM, Strain/Indicator: TA98, Metabolic Activation: RAT, LIVER, S-9, PCB, Method: PREINCUBATION): inactive; negative | mutagenic call [2]: inactive; negative | mutagenic call (Test System: AMES SALMONELLA TYPHIMURIUM, Strain/Indicator: TA100, Metabolic Activation: RAT, LIVER, S-9, PCB, Method: PREINCUBATION): inactive; negative
